# Measured values as given in ChEMBL document CHEMBL3739372 (Bioorg Med Chem, 2015).
# Experiment: Inhibition of Influenza B virus neuraminidase R152K mutant
row,SMILES,IC50
1,CCOC(=O)c1cn(CC)c2ccc(-n3cc(C4=CCCCC4)nn3)cc2c1=O,30 µM
2,CCOC(=O)C1=C[C@@H](OC(CC)CC)[C@H](NC(C)=O)[C@@H](N)C1 [OSELTAMIVIR],85 µM
